Assays:
[1] = test system: patients suffering from joint disease of the knee with constant pain; assay: Analgesic activity on analogue pain scale 0 to 10 (Example 6); type: in vivo, Humans; settings: second day
Text: 40 patients suffering from joint disease of the knee with constant pain were randomised and treated with two tablets a day, one in the morning and one in the evening, of the composition of example 4, or a placebo (consisting of the carrier only), or the ingredients of the composition of example 1 added individually to the placebo formulation in amounts equal to those present in the composition of example 4.
Efficacy was scored on an international analogue pain scale with scores from 0 to 10, 10 points indicating maximum pain and 0 the disappearance of pain. The effect was evaluated on the second day after administration of the tablet, in the morning 60 and 120 minutes after treatment.

[2] = test system: patients with osteoarthritis, mainly located in the knee; assay: Blinded study vs piroxicam and placebo, analgesic effect on WOMAC scale (Example 5); type: in vivo, Humans
Text: The analgesic activity of a composition according to the invention comprising Vitis vinifera extract complexed with phospholipids, lipophilic extract of Zingiber officinale, lipophilic extract of Zanthoxylum piperitum and an unsaponifiable fraction of Olea europaea was compared with the activity of piroxicam and a placebo. In a blinded study conducted on 180 patients with osteoarthritis, mainly located in the knee, the composition of example 1 was compared with piroxicam and a placebo by conducting a three-month treatment after randomisation, and check-ups on the joint function for six months after discontinuance of the treatment. At the beginning, the analgesic effect, measured with the Western Ontario and McMaster University Osteoarthritis (WOMAC) scale, was evaluated after 7 days' treatment with two capsules/day of the composition of example 1 vs. two […] capsules of piroxicam or placebo. After the first 7 days, the treatment continued for three months, the analgesic effect being measured once a month.

Row | SMILES | Pain (scores) at time 60 min. ([1]; 60 minutes after treatment) | Pain (scores) at time 120 min. ([1]; 120 minutes after treatment) | Pain (scores) at time 0 ([1]; time 0 (before the morning tablet)) | result (analgesic effect, WOMAC scale) ([2]; 4th month, after discontinuance of the treatment) [%+/−38] | result (analgesic effect, WOMAC scale) ([2]; 5th month, after discontinuance of the treatment) [%+/−23] | efficacy maintained after discontinuance of the treatment ([2]; double-blind trial, after discontinuance) | result (analgesic effect, WOMAC scale) ([2]; during the third month's treatment, two capsules/day) [%+/−31.4] | tolerability ([2]; three-month treatment) | analgesic effect (comparison of the two treated groups) ([2]; three-month treatment, WOMAC)
1 | CC(=O)Oc1cccc2c1C(=O)c1c(OC(C)=O)cc(C(=O)O)cc1C2=O [Diacerein, diacerein] | 8.2 ± 0.9 | 7.9 ± 0.8 | 9.1 ± 1.5 | – | – | – | – | – | –
2 | CN1C(C(=O)Nc2ccccn2)=C(O)c2ccccc2S1(=O)=O [piroxicam] | – | – | – | −41 | −24 | needed to continue the treatment | −72 | had to be discontinued due to evident side effects | comparable analgesic effect

— patent publication US10583162B2, “Compositions useful in the prevention and/or treatment of osteoarticular inflammation and pain and cartilage damage” (Indena S.P.A., priority 2016, dated 2020)
